# Test results as given in US3968214A, “5-Methylthio-pyrimidine vasodilators” (Produits Chimiques Ugine Kuhlmann, priority 1973, dated 1976).
# Where two headings read alike, the source gives them in different places.
# Key:
# [1] = test system: isolated duodenum of rabbit, spasms induced by barium chloride; assay: Spasmolytic activity, musculotrope versus BaCl2, isolated duodenum (Magnus)
# Source text: (§1) The spasmolytic activities are known by means of the technique of R. Magnus (Arch. Ges. Physiol., 1904, 102, 123) on the isolated duodenum of rabbits. The spasmolytic neurotropes inhibit the contractions of the organ caused by acetylcholine, while the musculotropes prevent the spasms induced by barium chloride. The EC 50 expressed in mg/litre are collected in the following Table where EC denotes "Effective concentration".
# [2] = Acute toxicity in mice, intravenous and oral (LD50); assay type: in vivo; settings: mouse, in vivo
# Source text: The acute toxicities of the compounds according to the invention have been determined CD 1 mice (Charles RIVER) by intravenous and oral methods. The LD50 calculated by the quantal cumulative method of J. J. Reed and H. Muench (Amer. J. Hyg. 1938, 27, 493) are collected in the following Table: […]
# [3] = test system: serotonin (shaking of the head induced by 5-hydroxy-tryptophan); assay: Central antiserotonin activity: Head-twitch induced by 5-hydroxy-tryptophan; assay type: in vivo, mice; settings: for ED50: Mus musculus, mice, oral, read-out: Antiserotonin activity Head-twitch AD 50; for central antiserotonin activity (in words): given orally to mice
# Source text: The analgesic activities have been investigated with respect to abdominal spasms caused in mice by the intraperitoneal injection of 2-phenyl-1,4-benzoquinone according to E. Siegmund, E. Cadmus and G. Lu, Proc. Soc. exp. […] The central antiserotonin properties have been determined by the "Head-twitch" technique in mice according to S. J. Corne, R. W. Pickering and B. T. Warner, Brit. […] In this test, the antiserotonin products inhibit the sudden shaking of the head induced in mice by 5-hydroxy-tryptophan, the biological precursor of serotonin.
# isolated rabbit heart = assay: Coronaro-dilatatory activity, isolated heart (Langendorff modified by Anderson); settings: for coronaro-dilatatory activity (in words): isolated rabbit heart
# Source text: The technique of Langendorff, modified by F. E. Anderson, (J. Pharmacol. exp. Therap., 1948, 91, 135) using isolated rabbit heart permits the coronaro-dilatatory activity of the products to be studied. In this text, the cardiac perfusion liquid contains 0.5 UI/1 of posthypophysis. The results are expressed in the percentage variation of the coronary flow after affusion of the product to be tested, compared with the initial flow.
# [4] = test system: abdominal spasms caused in mice by 2-phenyl-1,4-benzoquinone; assay: Analgesic activity: abdominal spasms caused by intraperitoneal 2-phenyl-1,4-benzoquinone (P.B.Q.); assay type: in vivo; settings: for ED50: Mus musculus, mice, oral, read-out: Analgesic activity P.B.Q. AD 50; for analgesic activity (in words): given orally to mice
# Source text: The analgesic activities have been investigated with respect to abdominal spasms caused in mice by the intraperitoneal injection of 2-phenyl-1,4-benzoquinone according to E. Siegmund, E. Cadmus and G. Lu, Proc. Soc. exp. Biol. Med., 1957, 95, 729-731. The central antiserotonin properties have been determined by the "Head-twitch" technique in mice according to S. J. Corne, R. W. Pickering and B. T. Warner, Brit. J. Pharmacol., 1963, 20, 106-120. In this test, the antiserotonin products inhibit the sudden shaking of the head induced in mice by 5-hydroxy-tryptophan, the biological precursor of serotonin.
# [5] = test system: isolated duodenum of rabbit, contractions caused by acetylcholine; assay: Spasmolytic activity, neurotrope versus acetylcholine, isolated duodenum (Magnus)
# Source text: as §1
# glycemia = assay: Hypoglycemiant activity, variation of glycemia after 4 days of daily oral treatment; assay type: in vivo, male CD rats (Charles RIVER); settings: rat
# Description: The hypoglycemiant properties have been studied on the male CD rats (Charles RIVER) weighing 200 to 250 g, in which the glycemia is controlled before treatment and then after 4 days of daily oral treatment. The seric glucose is determined by the method of W. S. Hoffmann (J. Biol. Chem., 1937, 120, 51). Groups of 10 rats are used and the hypoglycemiant activity is expressed by the percentage variation of the average glycemia of the treated animals with respect to that of the controls. If it is necessary, the statistical significance of the difference is determined by the test of the coefficient "t" of Student.
# [6] = intravenous, read-out: Acute toxicity to mice LD 50, intravenous
# [7] = oral, read-out: Acute toxicity to mice LD 50, orally
SMILES,"Spasmolytic activity EC 50, musculotrope versus BaCl2 [1] [µg/mL]","LD50 [2, 6] [mg/kg]","LD50 [2, 7] [mg/kg]",ED50 [3] [mg/kg],central antiserotonin activity (in words) [3],Increase of the coronary flow (isolated rabbit heart; dose 0.01 mg) [%],Increase of the coronary flow (isolated rabbit heart; dose 0.03 mg) [%],Increase of the coronary flow (isolated rabbit heart; dose 0.10 mg) [%],Increase of the coronary flow (isolated rabbit heart; dose 0.30 mg) [%],coronaro-dilatatory activity (in words) (isolated rabbit heart),ED50 [4] [mg/kg],"Spasmolytic activity EC 50, neurotrope versus acetylcholine [5] [µg/mL]",musculotropic EC 50 [1],musculotropic spasmolytic activity (in words) [1],Increase of the coronary flow (isolated rabbit heart; dose 0.003 mg) [%],neurotropic spasmolytic activity (in words) [5],analgesic activity (in words) [4],Increase of the coronary flow (isolated rabbit heart; dose 0.001 mg) [%],hypoglycemiant properties (in words) (glycemia)
"CCN(CC)CCNc1nc(N(C)c2ccccc2)nc(Cl)c1SC [Example 2, 2-N-methyl-N-phenylamino-4-(2'-diethylamino)-ethylamino-5-methylthio-6-chloro-pyrimidine]",0.80,43,225,95,central antiserotonine,56,58,64,91,interesting coronaro-dilatatory activities,> 100,1.50,–,–,–,–,–,–,–
"CCN(CC)CCNc1nc(N(CC)CC)nc(Cl)c1SC [Example 3, 2-diethylamino-4-(2'-diethylamino)-ethyl-amino-5-methylthio-6-chloro-pyrimidine]",0.30,64,225,35,central antiserotonine,–,–,–,–,–,> 100,1.30,–,–,–,–,–,–,–
"CCN(CC)CCNc1nc(N(C)Cc2ccccc2)nc(Cl)c1SC [Example 4, 2-N-methyl-N-benzylamino-4-(2'-diethylamino)-ethylamino-5-methylthio-6-chloro-pyrimidine]",0.06,45,525,–,–,28,41,135,–,interesting coronaro-dilatatory activities,–,0.30,less than 0.1 mg/liter,quite remarkable activities,8,necessary to call attention,–,–,–
"CSc1c(Cl)nc(N(C)c2ccccc2)nc1NCCN(C)C [Example 7, 2-N-methyl-N-phenyl-amino-4-(2'-dimethyl-amino)-ethylamino-5-methylthio-6-chloro-pyrimidine]",0.16,80,200,–,–,40,37,77,–,interesting coronaro-dilatatory activities,60,1.20,–,–,38,–,marked analgesic activity,–,–
"CCOC(=O)CN(C)c1nc(Cl)c(SC)c(NCCN(C)C)n1 [Example 10, 2-N-methyl-N-(ethoxycarbonylmethyl)-amino-4-(2'-dimethylamino)-ethylamino-5-methylthio-6-chloro-pyrimidine]",0.50,79,900,–,–,–,–,–,–,–,–,0.50,–,–,–,necessary to call attention,–,–,–
"CSc1c(Cl)nc(N(C)Cc2ccccc2)nc1NCCN(C(C)C)C(C)C [Example 11, 2-N-methyl-N-benzylamino-4-(2'-di-isopropyl-amino)-ethylamino-5-methylthio-6-chloro-pyrimidine]",0.02,60,675,–,–,–,–,–,–,interesting coronaro-dilatatory activities,–,3.50,less than 0.1 mg/liter,quite remarkable activities,172,–,–,168,–
"CSc1c(Cl)nc(N(C)c2ccccc2)nc1NCCN(C(C)C)C(C)C [Example 12, 2-N-methyl-N-phenylamino-4-(2'-di-isopropyl-amino)-ethylamino-5-methylthio-6-chloro-pyrimidine]",–,–,600,–,–,–,–,–,–,–,100,–,–,–,–,–,–,–,strong hypoglycemiant properties
"CSc1c(Cl)nc(N(C)c2ccc(C)cc2)nc1NCCN(C(C)C)C(C)C [Example 14, 2-N-methyl-N(4-methyl-phenyl)amino-4-(2'-diisopropylamino)-ethylamino-5-methylthio-6-chloro-pyrimidine]",0.04,92,900,–,–,140,168,–,–,interesting coronaro-dilatatory activities,–,0.08,less than 0.1 mg/liter,quite remarkable activities,104,necessary to call attention,–,–,–
"CCN(CC)c1nc(Cl)c(SC)c(NCCN(C(C)C)C(C)C)n1 [Example 16, 2-diethylamino-4-(2'-diisopropylamino)-ethylamino-5-methylthio-6-chloro-pyrimidine]",0.30,–,600,90,central antiserotonine,52,–,–,–,interesting coronaro-dilatatory activities,70,–,–,–,16,–,marked analgesic activity,–,–
"CSc1c(NCCN(C)C)nc(N(C)C)nc1OCc1cccnc1 [Example 23, 2-N-dimethyl-amino-4-(2'-dimethylamino)-ethylamino-5-methyl-thio-6-(3-pyridyl)-methoxy-pyrimidine]",1.00,22,175,–,–,–,–,–,–,–,–,8.60,–,–,–,–,–,–,–
"COc1nc(N(C)c2ccccc2)nc(NCCN(C(C)C)C(C)C)c1SC [Example 24, 2-N-methyl-N,phenylamino-4-(2'-diisopropylamino)-ethylamino-5-methyl-thio-6-methoxy-pyrimidine]",0.13,22,600,–,–,32,58,67,–,interesting coronaro-dilatatory activities,–,0.12,–,–,26,necessary to call attention,–,–,strong hypoglycemiant properties
"COc1nc(N(C)c2ccccc2)nc(NCCN(C)C)c1SC [Example 26, 2-N-methyl-N-phenyl-amino-4-(2'-dimethylamino)-ethylamino-5-methylthio-6-methoxy-pyrimidine]",–,70,225,–,–,–,–,–,–,–,65,–,–,–,–,–,–,–,–
"COc1nc(N(C)Cc2ccccc2)nc(NCCN(C(C)C)C(C)C)c1SC [Example 27, 2-N-methyl-N-benzyl-amino-4-(2'-diiso-propyl-amino)-ethylamino-5-methyl-thio-6-methoxy-pyrimidine]",0.08,18.5,600,–,–,–,–,–,–,–,95,–,less than 0.1 mg/liter,quite remarkable activities,–,–,marked analgesic activity,–,–
